Experimental data: patent US20150257394A1, “TEA EXTRACTS AND USES IN PROMOTING PLANT GROWTH” (PLANT ACTIVITY LTD., priority 2012, published 2015)

Test system: wheat seeds
Test: Effect of preservative on promotion of wheat seedling root growth by black tea extract (Example 10)
Type: in vivo
Settings: 1% solution of methyl paraben predissolved in hexalene glycol
Description: To evaluate whether a preservative affects the benefits of black tea extracts on wheat germination and early root growth, Malawi black tea extracts and Kenya black tea extracts were prepared according to Example 1 and used to treat wheat seeds (0.6 ml/kg seed) in combination with a preservative (1% solution of methyl paraben that has been predissolved in hexalene glycol (30:1 ratio of hexalene glycol to methyl paraben)) or without the preservative substantially according to Example 2. Root system measurements were performed according to Example 6.

COC(=O)c1ccc(O)cc1 [methyl paraben]
effect of preservative on the benefits of the black tea extracts: did not negatively affect
